The values below are quoted from earlier work in patent publication US20240047033A1, “MULTI-OMICS METHODS FOR PRECISION MEDICINE” (UNIVERSITY OF PITTSBURGH-OF THE COMMONWEALTH SYSTEM OF …, priority 2020, published 2024).

The test system of the data set is non-small cell lung cancer (NSCLC) tumors. Conditions: pretreated chemorefractory NSCLC patients, Erlotinib monotherapy, 28 patients.

Each structure is given as a SMILES string.

As to `C#Cc1cccc(Nc2ncnc3cc(OCCOC)c(OCCOC)cc23)c1` [Erlotinib], the “time within which all treated patients progressed” value was “six”.
